The record followed here is ChEMBL document CHEMBL1122062, “Inhibitors of adenosine deaminase. Studies in combining high-affinity enzyme-binding structural units. erythro-1,6-Dihydro-6-(hydroxymethyl)-9-(2-hydroxy-3-nonyl)purine and erythro-9-(2-hydroxy-3-nonyl)purine” (J Med Chem, 1982).

Experiment [1] concerns the target T1, Adenosine deaminase (Bos taurus) (UniProt P56658).
T1 sequence (whole entry): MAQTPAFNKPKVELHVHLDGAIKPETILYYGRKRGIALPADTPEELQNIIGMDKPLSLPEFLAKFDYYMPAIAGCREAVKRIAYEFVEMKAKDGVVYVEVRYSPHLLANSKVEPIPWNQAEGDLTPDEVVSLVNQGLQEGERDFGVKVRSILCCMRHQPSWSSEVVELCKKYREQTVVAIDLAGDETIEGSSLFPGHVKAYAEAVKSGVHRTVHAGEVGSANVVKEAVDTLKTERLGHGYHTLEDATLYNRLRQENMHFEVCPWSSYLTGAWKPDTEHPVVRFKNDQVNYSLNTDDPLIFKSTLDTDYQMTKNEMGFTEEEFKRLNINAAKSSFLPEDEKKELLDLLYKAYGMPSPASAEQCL

Experiment [2] is described as follows: Upper limit of relative enzyme affinity of compound to the substrate.
Experiment [3] addresses T2, Adenosine deaminase (Bos taurus, UniProt P56658).
T2 sequence (P56658 whole entry): T1 sequence (whole entry)
The experiment in a line: Ability to inhibit calf intestinal adenosine deaminase (ADA).

The target in experiment [4] is T2, Adenosine deaminase. Kind of experiment: Ability to inhibit calf intestinal adenosine deaminase (ADA); No data.

In turn, `OC[C@H]1O[C@@H](n2cnc3c2N=CNC[C@H]3O)C[C@@H]1O` returned an REA in experiment [1] of 2.8e+06. In the case of `CCCCCCC(C(C)O)n1cnc2cncnc21` (stereo unspecified), in experiment [2], the Km/Ki was 36. Besides, on Adenosine deaminase [3], affinity was put at a Ki of 680 nM. `CCCCCCC(C(C)O)n1cnc2c1N=CNC2CO` (stereo unspecified): in experiment [2], the Km/Ki is 2.1. Besides, the Ki (in general, the equilibrium dissociation constant of an inhibitor or competing ligand from its target) on Adenosine deaminase [4] was 12000 nM. The molecule `CCCCCC[C@@H]([C@@H](C)O)n1cnc2c(N)ncnc21` [EHNA] displayed a Ki on Adenosine deaminase [4] of 1.3 nM.
